The results in this text go back to patent publication US8129398B2 (priority 2008, dated 2012).

For assay [1], the target named is T1, HIV-integrase (Human immunodeficiency virus type 1 group M subtype B, UniProt P12497).
T1 construct: Recombinant integrase (0.26 ng) was incubated with the beads
Kind of assay: HIV-Integrase Inhibition Activity (SPA bead integration assay with P33 labeled target DNA). The assay is classed as biochemical. To be noted: for IC50: recombinant integrase, class symbols, read-out: in vitro activity; for Ki: representative compounds. In outline:
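Strand integration read as bead-proximity CPM after P33 target DNA (0.1 fmol) and inhibitor were added to washed integrase–substrate DNA complexes on SPA beads. Enzyme bound 90 min at 37° C; EDTA (10 mM final) terminated reaction; IC50 graded A/B/C.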

In assay [2] the test system is recombinant NL-Rluc virus. As to the kind of experiment: Inhibition of HIV replication (recombinant NL-Rluc virus, Renilla luciferase reporter). The assay is classed as cell-based. (Reporter assays use an easily measured gene product as a stand-in for the process of interest.)
The mark [3] stands for this setting: read-out: Antiviral activity, NL-Rluc virus, serum condition not specified (10% FBS, 15 mg/ml human serum albumin/10% FBS or 40% human serum/5% FBS), class symbols.

Usually Ki stands for the dissociation constant of the complex between target and ligand, obtained from inhibition or displacement.

SMILES strings stand for the structures. Like-named read-outs stand apart in the source and are kept apart here.

For `CN(C)C(=O)C(=O)NC12CCC(Cn3c1nc(C(=O)NCc1ccc(F)cc1)c(O)c3=O)C2` (single isomer, unassigned) [Example 412, Ethanediamide, N′-[2-[[[(4-fluorophenyl)methyl]amino]carbonyl]-6,7,8,9-tetrahydro-3-hydroxy-4-oxo-7,11-methanopyrimido[1,2-a]azepin-10(4H)-yl]-N,N-dimethyl-], the IC50 in assay [1] was below 0.01 µM. The EC50 in assay [2] (setting [3]) is below 0.01 µM.
Take `CN(C)C(=O)C(=O)NC12CCC(CCn3c1nc(C(=O)NCc1ccc(F)cc1)c(O)c3=O)C2` (single isomer, unassigned) [Example 414, Ethanediamide, N′-[2-[[[(4-fluorophenyl)methyl]amino]carbonyl]-7,8,9,10-tetrahydro-3-hydroxy-4-oxo-8,11-methano-4H-pyrimido[1,2-a]azocin-11(6H)-yl]-N,N-dimethyl-]: in assay [1], the IC50 is below 0.01 µM. Further, the EC50 in assay [2] (setting [3]) is below 0.01 µM.
As for `O=C(NCc1ccc(F)cc1)c1nc2n(c(=O)c1O)CC1CC2CN(C(=O)OCc2ccccc2)C1` (stereo not shown) [Example 6, 7,11-Methano-4H-pyrimido[1,2-a][1,5]diazocine-9(6H)-carboxylic acid, 2-[[[(4-fluorophenyl)methyl]amino]carbonyl]-7,8,10,11-tetrahydro-3-hydroxy-4-oxo-, phenylmethyl ester], in assay [1], the IC50 is 0.01 to 0.1 µM and the affinity, expressed as Ki, was 0.012 µM. For the same compound, the EC50 in assay [2] (Human immunodeficiency virus 1) came to 0.141 µM.
Take `NC12CCC(CC1)Cn1c2nc(C(=O)NCc2ccc(F)cc2)c(O)c1=O` [Example 19, 10-Amino-N-(4-fluorobenzyl)-3-hydroxy-4-oxo-4,6,7,8,9,10-hexahydro-7,10-ethanopyrimido[1,2-a]azepine-2-carboxamide]: in assay [1], the IC50 is above 0.1 µM and the Ki stood at 0.126 µM. In assay [2] (Human immunodeficiency virus 1), the EC50 was determined as 0.302 µM.
In the same order, the values of `O=C(NC12CCC(CC1)Cn1c2nc(C(=O)NCc2ccc(F)cc2)c(O)c1=O)c1cccnc1` [Example 33, N-(4-Fluorobenzyl)-3-hydroxy-4-oxo-10-((3-pyridinylcarbonyl)amino)-4,6,7,8,9,10-hexahydro-7,10-ethanopyrimido[1,2-a]azepine-2-carboxamide] are below 0.01 µM, 0.001 µM and 0.002 µM.
On the same counts, the results for `CC(=O)NC12CCC(CC1)Cn1c2nc(C(=O)NCc2ccc(F)cc2-n2ncnc2C)c(O)c1=O` [Example 38, 10-(Acetylamino)-N-(4-fluoro-2-(5-methyl-1H-1,2,4-triazol-1-yl)benzyl)-3-hydroxy-4-oxo-4,6,7,8,9,10-hexahydro-7,10-ethanopyrimido[1,2-a]azepine-2-carboxamide] are below 0.01 µM, 0.009 µM and 0.037 µM.
`O=C(NCc1ccc(F)cc1)c1nc2n(c(=O)c1O)CC1CCC2(NS(=O)(=O)C2CC2)CC1` [Example 41, 10-((Cyclopropylsulfonyl)amino)-N-(4-fluorobenzyl)-3-hydroxy-4-oxo-4,6,7,8,9,10-hexahydro-7,10-ethanopyrimido[1,2-a]azepine-2-carboxamide]: in assay [1], the IC50 is below 0.01 µM and the affinity corresponds to a Ki of 0.001 µM. Moreover, the EC50 in assay [2] (Human immunodeficiency virus 1) was below 0.001 µM.
Consider `Cc1cc(CNC(=O)c2nc3n(c(=O)c2O)CC2CCC3(NS(=O)(=O)C3CC3)CC2)ccc1F` [Example 42, 10-((Cyclopropylsulfonyl)amino)-N-(4-fluoro-3-methylbenzyl)-3-hydroxy-4-oxo-4,6,7,8,9,10-hexahydro-7,10-ethanopyrimido[1,2-a]azepine-2-carboxamide], for which, in assay [1], the IC50 was below 0.01 µM and the affinity, expressed as Ki, was 0.001 µM. Further, in assay [2] (Human immunodeficiency virus 1), the EC50 stood at 0.001 µM.
As to `O=C(NC12CCC(CC1)Cn1c2nc(C(=O)NCc2ccc(F)cc2)c(O)c1=O)C(=O)c1c[nH]c2c(-n3cncn3)ncc(F)c12` [Example 48, N-(4-Fluorobenzyl)-10-(((4-fluoro-7-(1H-1,2,4-triazol-1-yl)-1H-pyrrolo[2,3-c]pyridin-3-yl)(oxo)acetyl)amino)-3-hydroxy-4-oxo-4,6,7,8,9,10-hexahydro-7,10-ethanopyrimido[1,2-a]azepine-2-carboxamide], in assay [1], the IC50 was below 0.01 µM and the Ki amounted to 0.001 µM. In assay [2] (Human immunodeficiency virus 1), the EC50 was found to be 0.004 µM.
`O=C(NC12CCC(Cn3c1nc(C(=O)NCc1ccc(F)cc1)c(O)c3=O)OC2)OCc1ccccc1` (stereo not shown) [Example 219, Benzyl (2-((4-fluorobenzyl)carbamoyl)-3-hydroxy-4-oxo-6,7,8,9-tetrahydro-7,10-(epoxymethano)pyrimido[1,2-a]azepin-10(4H)-yl)carbamate]: in assay [1], the IC50 fell in the range of 0.01 to 0.1 µM and the affinity, expressed as Ki, was 0.012 µM. Further, the EC50 in assay [2] (Human immunodeficiency virus 1) was found to be 0.037 µM.
Consider `CC(=O)N1CCC[C@H]1C(=O)NC12CCC(CC1)Cn1c2nc(C(=O)NCc2ccc(F)cc2)c(O)c1=O` [Example 255, 7,10-Ethanopyrimido[1,2-a]azepine-2-carboxamide, 10-[[[(2S)-1-acetyl-2-pyrrolidinyl]carbonyl]amino]-N-[(4-fluorophenyl)methyl]-4,6,7,8,9,10-hexahydro-3-hydroxy-4-oxo-], for which, in assay [1], the IC50 is below 0.01 µM. For the same compound, the EC50 in assay [2] (setting [3]) was below 0.01 µM.
As to `CS(=O)(=O)N1CCC[C@H]1C(=O)NC12CCC(CC1)Cn1c2nc(C(=O)NCc2ccc(F)cc2)c(O)c1=O` [Example 256, 7,10-Ethanopyrimido[1,2-a]azepine-2-carboxamide, N-[(4-fluorophenyl)methyl]-4,6,7,8,9,10-hexahydro-3-hydroxy-10-[[[(2S)-1-(methylsulfonyl)-2-pyrrolidinyl]carbonyl]amino]-4-oxo-], in assay [1], the IC50 is below 0.01 µM. In addition, the EC50 in assay [2] (setting [3]) was below 0.01 µM.
As to `Cc1cc(CNC(=O)c2nc3n(c(=O)c2O)CC2CCC3(NC(=O)C3(C(F)(F)F)CC3)CC2)ccc1F` [Example 303, 7,10-Ethanopyrimido[1,2-a]azepine-2-carboxamide, N-[(4-fluoro-3-methylphenyl)methyl]-4,6,7,8,9,10-hexahydro-3-hydroxy-4-oxo-10-[[[1-(trifluoromethyl)cyclopropyl]carbonyl]amino]-], in assay [1], the IC50 was above 0.1 µM and affinity was put at a Ki of 0.18 µM. Also, in assay [2] (Human immunodeficiency virus 1), the EC50 worked out at 0.192 µM.
Regarding `Cc1cc(CNC(=O)c2nc3n(c(=O)c2O)CC2CCC3(NS(=O)(=O)CC3CC3)CC2)ccc1F` [Example 306, 7,10-Ethanopyrimido[1,2-a]azepine-2-carboxamide, 10-[[(cyclopropylmethyl)sulfonyl]amino]-N-[(4-fluoro-3-methylphenyl)methyl]-4,6,7,8,9,10-hexahydro-3-hydroxy-4-oxo-], in assay [1], the IC50 is above 0.1 µM and the affinity, expressed as Ki, was 0.86 µM. Also, the EC50 in assay [2] (Human immunodeficiency virus 1) is 0.385 µM.
As for `Cc1cc(CNC(=O)c2nc3n(c(=O)c2O)CC2CCC3(NC(=O)c3cccnn3)CC2)ccc1F` [Example 314, 7,10-Ethanopyrimido[1,2-a]azepine-2-carboxamide, N-[(4-fluoro-3-methylphenyl)methyl]-4,6,7,8,9,10-hexahydro-3-hydroxy-4-oxo-10-[(3-pyridazinylcarbonyl)amino]-], in assay [1], the IC50 is below 0.01 µM and the Ki was below 0.001 µM. For the same compound, the EC50 in assay [2] (Human immunodeficiency virus 1) is below 0.001 µM.
As to `CN(C)C(=O)C(=O)NC12CCC(CC1)Cn1c2nc(C(=O)N[C@H]2C[C@@H]2c2ccccc2)c(O)c1=O` [Example 357], in assay [1], the IC50 is below 0.01 µM and the Ki worked out at 0.009 µM. The EC50 in assay [2] (Human immunodeficiency virus 1) amounted to 0.006 µM.
In the same order, the values of `COc1ccc(CNC(=O)c2nc3n(c(=O)c2O)CC2CCC3(NC(=O)C(=O)N(C)C)CC2)c(OC)c1` [Example 382] are 0.01 to 0.1 µM, 0.011 µM and 0.016 µM.
On to `Cc1noc(C)c1S(=O)(=O)NC12CCC(CC1)Cn1c2nc(C(=O)NCc2ccc(F)cc2)c(O)c1=O` [Example 392], for which, in assay [1], the IC50 was above 0.1 µM and the Ki amounted to 0.467 µM. For the same compound, the EC50 in assay [2] (Human immunodeficiency virus 1) was 0.618 µM.
Turning to `O=C(NCc1ccc(F)cc1)c1nc2n(c(=O)c1O)CC1CCC2(NS(=O)(=O)c2ccccc2OC(F)(F)F)CC1` [Example 396], in assay [1], the IC50 is above 0.1 µM and affinity was put at a Ki of 0.294 µM. For the same compound, the EC50 in assay [2] (Human immunodeficiency virus 1) was determined as 0.455 µM.
`O=C(N[C@]12CC[C@H](CCn3c1nc(C(=O)NCc1ccc(F)cc1)c(O)c3=O)C2)C(=O)N1CC[C@@H](F)C1` [Example 417, 8,1,1-Methano-4H-pyrimido[1,2-a]azocine-2-carboxamide, N-[(4-fluorophenyl)methyl]-11-[[2-[(3R)-3-fluoro-1-pyrrolidinyl]-1,2-dioxoethyl]amino]-6,7,8,9,10,11-hexahydro-3-hydroxy-4-oxo-, (8R,11S)—]: the IC50 in assay [1] is below 0.01 µM.
For the compound `O=C(N[C@@]12CC[C@@H](CCn3c1nc(C(=O)NCc1ccc(F)cc1)c(O)c3=O)C2)C(=O)N1CC[C@@H](F)C1` [Example 418, 8,1,1-Methano-4H-pyrimido[1,2-a]azocine-2-carboxamide, N-[(4-fluorophenyl)methyl]-11-[[2-[(3R)-3-fluoro-1-pyrrolidinyl]-1,2-dioxoethyl]amino]-6,7,8,9,10,11-hexahydro-3-hydroxy-4-oxo-, (8S,11R)—], the IC50 in assay [1] was below 0.01 µM.
